Results taken from ChEMBL document CHEMBL5230123, “A comprehensive review of monoamine oxidase inhibitors as Anti-Alzheimer's disease agents: A review” (Eur J Med Chem, 2020).

Columns and labels:
[1] = target: T1, Amine oxidase [flavin-containing] B (Homo sapiens, UniProt P27338); assay: Inhibition of human MAO-B using tyramine hydrochloride as substrate preincubated for 30 mins followed by substrate addition and measured after 30 mins by fluorescence assay
T1 sequence (P27338 whole entry): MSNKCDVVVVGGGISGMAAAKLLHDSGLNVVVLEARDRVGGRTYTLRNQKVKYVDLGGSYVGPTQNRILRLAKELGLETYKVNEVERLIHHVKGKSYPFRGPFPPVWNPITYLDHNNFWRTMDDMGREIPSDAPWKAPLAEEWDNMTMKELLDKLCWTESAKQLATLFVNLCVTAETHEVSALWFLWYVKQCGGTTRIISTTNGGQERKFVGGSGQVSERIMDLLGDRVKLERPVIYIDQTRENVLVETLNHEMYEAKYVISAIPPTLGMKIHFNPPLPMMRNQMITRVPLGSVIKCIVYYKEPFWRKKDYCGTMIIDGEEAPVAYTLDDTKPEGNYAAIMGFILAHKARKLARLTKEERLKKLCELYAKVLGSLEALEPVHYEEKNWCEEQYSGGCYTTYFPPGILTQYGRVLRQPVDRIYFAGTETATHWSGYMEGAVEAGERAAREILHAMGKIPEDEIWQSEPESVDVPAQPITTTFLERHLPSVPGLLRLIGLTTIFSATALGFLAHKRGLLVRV

[2] = target: T1, Amine oxidase [flavin-containing] B; assay: Inhibition of human MAO-B using benzylamine as substrate
[3] = target: T2, Amine oxidase [flavin-containing] A (Homo sapiens, UniProt P21397); assay: Inhibition of human MAO-A assessed as inhibition constant using kynuramine as substrate
T2 sequence (P21397 whole entry): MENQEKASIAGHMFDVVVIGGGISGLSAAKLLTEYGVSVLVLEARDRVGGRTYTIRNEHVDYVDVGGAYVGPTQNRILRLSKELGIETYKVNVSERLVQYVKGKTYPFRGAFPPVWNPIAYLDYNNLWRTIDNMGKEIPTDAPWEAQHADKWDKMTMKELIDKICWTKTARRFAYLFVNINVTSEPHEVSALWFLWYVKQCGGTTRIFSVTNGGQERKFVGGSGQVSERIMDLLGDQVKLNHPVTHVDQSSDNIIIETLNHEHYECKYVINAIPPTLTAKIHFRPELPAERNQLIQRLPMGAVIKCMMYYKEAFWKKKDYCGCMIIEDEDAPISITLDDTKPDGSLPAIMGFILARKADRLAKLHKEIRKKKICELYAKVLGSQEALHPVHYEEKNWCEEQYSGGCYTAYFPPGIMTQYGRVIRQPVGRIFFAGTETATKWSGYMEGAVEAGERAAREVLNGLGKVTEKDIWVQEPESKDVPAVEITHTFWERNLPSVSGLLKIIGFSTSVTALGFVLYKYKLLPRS

[4] = target: T2, Amine oxidase [flavin-containing] A; assay: Mixed type inhibition of human MAO-A assessed as inhibition constant by Lineweaver-Burk plot analysis
[5] = target: T1, Amine oxidase [flavin-containing] B; assay: Inhibition of human MAO-B
[6] = target: T1, Amine oxidase [flavin-containing] B; assay: Inhibition of human MAO-B assessed as inhibition constant using benzylamine as substrate
[7] = target: Acetylcholinesterase (Electrophorus electricus, UniProt O42275); assay: Inhibition of electric eel AChE using acetylthiocholine iodide as substrate incubated for 15 mins by Ellman's method
Chain of Acetylcholinesterase (O42275 whole entry): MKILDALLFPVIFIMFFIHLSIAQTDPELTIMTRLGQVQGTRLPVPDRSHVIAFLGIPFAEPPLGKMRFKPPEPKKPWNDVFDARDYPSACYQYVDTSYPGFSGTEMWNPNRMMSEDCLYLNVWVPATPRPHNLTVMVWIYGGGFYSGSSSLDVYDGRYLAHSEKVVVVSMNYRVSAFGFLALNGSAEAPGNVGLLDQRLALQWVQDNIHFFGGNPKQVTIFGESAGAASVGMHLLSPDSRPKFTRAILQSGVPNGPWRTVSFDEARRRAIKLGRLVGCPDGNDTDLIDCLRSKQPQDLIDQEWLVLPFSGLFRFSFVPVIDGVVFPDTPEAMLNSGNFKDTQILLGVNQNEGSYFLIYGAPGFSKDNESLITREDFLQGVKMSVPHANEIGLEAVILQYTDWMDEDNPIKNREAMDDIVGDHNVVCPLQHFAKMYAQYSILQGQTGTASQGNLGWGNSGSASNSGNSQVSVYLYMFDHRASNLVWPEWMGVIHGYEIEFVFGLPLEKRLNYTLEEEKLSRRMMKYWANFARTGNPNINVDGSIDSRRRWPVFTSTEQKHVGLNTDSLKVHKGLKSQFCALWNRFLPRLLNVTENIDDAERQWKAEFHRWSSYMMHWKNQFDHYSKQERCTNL

O=C(CSC(=S)N1CCN(c2ccc([N+](=O)[O-])cc2)CC1)N(Cc1ccc([N+](=O)[O-])cc1)c1ccc(F)cc1
IC50 [1]: 97 nM

COc1cc(/C=C/C(=O)CC(=O)/C=C/c2ccc(O)cc2)ccc1O
IC50 [2]: 2450 nM
Ki [3]: 910 nM

COc1cc(O)c2c(=O)oc3cc(O)cc(C)c3c2c1
Ki [4]: 340 nM
IC50 [5]: > 80000 nM

O=C(/C=C/c1ccc(O)cc1)CC(=O)/C=C/c1ccc(O)cc1 [BISDEMETHOXYCURCUMIN]
IC50 [2]: 2590 nM
Ki [6]: 800 nM

C#CCN1C(=O)/C(=N/NC(=O)c2ccc3c(c2)OCO3)c2ccccc21
IC50 [7]: 52 nM
